Series [1] has as its system human granulocyte-macrophage precursor cells. Type of series: cell-based. An excerpt: Preparation of Cells. Human bone marrow cells were collected by aspiration from the posterior iliac crest of normal healthy volunteers, treated with heparin and the mononuclear population separated by Ficoll-Hypaque gradient centrifugation. Cells were washed twice in Hanks balanced salt solution, counted with a hemacytometer and their viability was >98% as assessed by trypan blue exclusion.
Assay of Colony-Forming Unit Granulocyte-Macrophage (CFU-GM) for Drug Cytotoxicity. The culture assay for CFU-GM was performed using a bilayer soft-agar method as recently described (Sommadossi et al, Antimicrob. Agents Chemother. 31, 452-454, 1987). McCoy 5A nutrient medium supplemented with 15% dialyzed fetal bovine serum (heat inactivated at 56° C. for 30 min.) (Gibco Laboratories, Grand Island, N.Y.) was used in all experiments. This medium was completely lacking in thymidine and uridine. Cells were cloned in 0.3% agar in the presence of increasing concentrations of the modulating compound or in medium alone (control). After 14 days of incubation at 37° C. in a humidified atmosphere of 5% CO2 in air, colonies (≧50 cells) were counted using an inverted microscope.
The toxicities of a variety of polyoxometalates with respect to human bone marrow cells (human granulocyte-macrophage precursor cells) were assessed.

In a further series the test system is HSV-2. Kind of series: Plaque reduction assay for herpes simplex viruses in Vero cells. Type of series: cell-based, herpes simplex virus type 2. To be noted: Table 2, read-out: EC-50 HSV-2. The method, then:
Cell culture assays for heroes simplex viruses. Mycoplasma-free Vero cells, obtained from Flow Laboratory (McLean, Va.), were used for the plaque assays. The methodologies for the plaque reduction and cytotoxicity assays have been previously described (Schinazi et al, Antimicrob. Agents Chemother. 22, 499-507, 1982). Median-effect method. Dose-effect relationships were analyzed by the median-effect equation (Chou et al, Adv. Enz. Regul. 22, 27-55, 1984). The slope (m) and median effective and inhibitory concentration (EC50 and IC50) values were obtained by using a computer program developed by Chou and Chou (Chou et al, Elsevier-Biosoft, Elsevier Science Publishers, Cambridge, U.K., 1985).
(Plaques are areas of infected cells; plaque reduction assays count them against a control.)

The subject of the next series is Friend, Spleen (EY-10). As to the kind of experiment: UV/XC assay for murine retroviruses in SC-1 cells. The series is classed as cell-based, murine retrovirus. To be noted: Table 2, read-out: EC-50 Friend, Spleen (EY-10). As to the method: UV/XC Assay for Murine Retroviruses Cells. Mouse embryo fibroblasts (SC-1) and XC cells were obtained from the American Type Culture Collection, Rockville, Md. The XC cell line was derived from a transplantable tumor induced in newborn White-Weston rats by the intramuscular injection of the Prague strain of Rous sarcoma virus. […] The cells were maintained in Eagle's minimum essential medium with Hanks balanced salt solution, supplemented with penicillin (100 U/ml), streptomycin (100 μg/ml), sodium bicarbonate (24 mM), Hepes (25 mM), and either 2 (maintenance) or 10 (growth) percent inactivated newborn or fetal calf serum.
Virus quantitation by UV-XC assay. The XC test (Rowe et al, Virology 42, 1136-1139, 1970) is a plaque-type of assay which tests for the presence and titer of B- and N-tropic murine leukemia viruses. Because these viruses produce no overt signs of infection of SC-1 mouse cells, it is necessary to overlay the virus producing culture with an indicator cell line, XC. The number of syncytia that are produced is a direct measure of the virus titer in FFU.
Six-well plates were seeded with 1×10^5 SC-1 mouse cells on the first day. On the following day the medium was removed and the inoculum (0.2 ml) was added in medium containing polybrene (4 μg/ml). For determining the antiviral activity of the compounds in culture, the virus dilution selected produced in untreated cultures about 80 foci per well. After 1 hour, the virus was removed and various concentrations of the drug were added. The plates were replenished with medium on the third and fifth days. The medium was removed on the eighth day and the cells exposed to UV irradiation (60 erg/mm^2 per sec) for 30 seconds. Medium containing 10^6 XC cells was then added to each plate. On the eleventh day, the plates were fixed with 10% buffered Formalin and stained with crystal violet. Comparison of the number of foci to those found in virus-infected cells receiving no drug allowed determination of whether a drug at a particular concentration was effective. Control cells without virus but receiving the drug provided an estimate of the drug's toxic effects as quantitated by using trypan blue staining.

For series [2], the target named is T1, HIV-1 reverse transcriptase (Human immunodeficiency virus type 1 group M subtype B, UniProt P04585).
T1 construct: HIV-1 RT was isolated from detergent disrupted virions; made in house; host or cells: virions pelleted from culture fluid of HIV-1-infected PHA-stimulated human PBMC; DEAE-cellulose and phosphocellulose chromatography
Kind of series: Evaluation of compounds on purified retroviral RT (cell-free, virion-derived). Type of series: biochemical. To be noted: Table 2; read-out: EC-50 Cell-Free RT (virion-derived). An outline of the steps:
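Enzyme was HIV-1 RT partially purified from virions of infected PHA-stimulated PBMC by DEAE-cellulose and phosphocellulose chromatography. Reactions at pH 8.0 with 2 mM MgCl2, 50 mM KCl, 3 μg/ml (rA)·(dT)12-18 template and 1 μM [3H]TTP, 60 min at 37 °C. IC50 from median-effect analysis.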

Read-outs that look alike come from different tables or passages of the source.

As to `Cc1cn([C@H]2C[C@H](N=[N+]=[N-])[C@@H](CO)O2)c(=O)[nH]c1=O` [Formula 22, 3′-azido-3′-deoxythymidine, reference compound], the “toxicity to human bone marrow cells (order of toxicity, FIG. 6)” value (“toxicity to human bone marrow cells” for short) in series [1] (human, 14 days) is “BT and NH4ST<AZT and ST<HPA-23”. Further, the EC50 was over 100000 nM in the series with HSV-2 (Human alphaherpesvirus 2, Vero) and 10 nM in the series with Friend, Spleen (EY-10) (unidentified retrovirus, SC-1).
On to “(ArgH^+)m(H^+)4-mST, where m=1-4 [(ARGH^+)nH^+(4−n)ST]”, for which the EC50 in the series on HSV-2 is under 1000 nM; in series [2], 14200 nM; with Friend, Spleen (EY-10) it was 990 nM.
Consider (Me4N)4W10O32 [Formula 19], for which the EC50 with HSV-2 came out at 8780 nM; in series [2], 10100 nM.
On to (NH4)4W10O32 [Formula 18], for which the EC50 with HSV-2 was determined as 9700 nM; in series [2] it was 24200 nM; in the series with Friend, Spleen (EY-10), 580 nM.
Turning to (NH4)6P2W18O62 [Formula 14], the EC50 with HSV-2 is 240 nM; in series [2], 130 nM.
In the same order, the values of H3PW12O40 [Formula 2] are 18700 nM and over 100000 nM.
Take H4SiW12O40 [Formula 3]: the “toxicity to human bone marrow cells” value in series [1] was “BT and NH4ST<AZT and ST<HPA-23”. Further, the EC50 with HSV-2 turned out to be 1500 nM; in series [2], 26100 nM; in the series on Friend, Spleen (EY-10) it was 170 nM.
Turning to H5BW12O40 [Formula 4], the “toxicity to human bone marrow cells” value in series [1] was “NH4BT (least toxic)<BT and NH4ST<AZT and ST”. Moreover, the EC50 in series [2] is 2600 nM; in the series on Friend, Spleen (EY-10) it was 180 nM.
Take H6P2W18O62 [Formula 13]: the EC50 with HSV-2 worked out at 180 nM; in series [2] it was 140 nM.
